Experimental data from patent US10059713B2 (Takeda Pharmaceutical Company Limited, priority 2014, dated 2018).

Biological target: human GPR43 (Homo sapiens (Human), UniProt O15552)
Assay: Ca-Flux functional assay: determination of agonist/positive allosteric modulator (PAM) activity
Assay type: cell-based
Conditions: CHO-K1 Gα16 cells stably expressing human GPR43; compound added with EC20 sodium acetate; intracellular Ca2+ by FLIPR; does not distinguish agonist from PAM
Summary of the method: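 Agonist or PAM activity read as intracellular Ca2+ rise by FLIPR after adding compound plus EC20 acetate, acetate EC20 set from a prior curve. Cells: CHO-K1 Gα16 with stable human GPR43. EC50 from ten-point half-log curves starting 10 μM.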

Sequence of human GPR43 (O15552 whole entry): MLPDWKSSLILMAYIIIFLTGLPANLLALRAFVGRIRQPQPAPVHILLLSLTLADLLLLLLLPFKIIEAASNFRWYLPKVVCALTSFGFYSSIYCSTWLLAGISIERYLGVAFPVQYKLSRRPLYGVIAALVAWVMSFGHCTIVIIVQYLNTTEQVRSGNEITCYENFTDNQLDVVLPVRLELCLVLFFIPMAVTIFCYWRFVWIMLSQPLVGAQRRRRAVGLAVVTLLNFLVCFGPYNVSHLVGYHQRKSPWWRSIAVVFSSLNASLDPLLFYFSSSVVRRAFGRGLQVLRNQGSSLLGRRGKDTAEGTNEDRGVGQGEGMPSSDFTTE

First: Cc1nc(N2CCC3(CC2)CC3)c2[nH]c(N)c(S(=O)(=O)c3ccccc3)c2n1 [Example 207, 4-{6-azaspiro[2.5]octan-6-yl}-7-(benzenesulfonyl)-2-methyl-5H-pyrrolo[3,2-d]pyrimidin-6-amine]
Second: Cc1nc(N2CCC3(CC2)CC3)c2[nH]c(N)c(S(=O)(=O)c3ccccc3F)c2n1 [Example 214, 4-{6-azaspiro[2.5]octan-6-yl}-7-(2-fluorobenzenesulfonyl)-2-methyl-5H-pyrrolo[3,2-d]pyrimidin-6-amine]
The EC50 of the first is 3-fold higher: 27 nM for the first, 9 nM for the second. The second is the more potent here.

Compared with `Nc1[nH]c2c(C3=CCCCC3)ncnc2c1S(=O)(=O)c1ccc(F)cc1` [Example 26, 4-(cyclohex-1-en-1-yl)-7-[(4-fluorobenzene)sulfonyl]-5H-pyrrolo[3,2-d]pyrimidin-6-amine], `Nc1[nH]c2c(C3=CCCCC3)ncnc2c1Sc1ccccc1` [Example 135, 4-(cyclohex-1-en-1-yl)-7-(phenylsulfanyl)-5H-pyrrolo[3,2-d]pyrimidin-6-amine] is 5.1-fold higher in EC50: 46 nM for the first, 235 nM for the second.

Going from `Cc1nc(N2CCO[C@H](C)[C@H]2C)c2[nH]c(N)c(S(=O)(=O)c3ccccc3F)c2n1` [Example 276, 4-[(RR,SS)-2,3-dimethylmorpholin-4-yl]-7-(2-fluorobenzenesulfonyl)-2-methyl-5H-pyrrolo[3,2-d]pyrimidin-6-amine] to `Cc1nc(N2C[C@@H](C)OC[C@H]2C)c2[nH]c(N)c(S(=O)(=O)c3ccccc3F)c2n1` [Example 232, 4-[(2R,5R)-2,5-dimethylmorpholin-4-yl]-7-(2-fluorobenzenesulfonyl)-2-methyl-5H-pyrrolo[3,2-d]pyrimidin-6-amine], the EC50 falls from 16 nM to 3 nM (5.3-fold).

Going from `Cc1nc(N2CCO[C@@H](C)C2)c2[nH]c(N)c(S(=O)(=O)c3ccc(Br)cc3N3CCO[C@@H](C)C3)c2n1` [Example 240, 7-{4-bromo-2-[(2S)-2-methylmorpholin-4-yl]benzenesulfonyl}-2-methyl-4-[(2S)-2-methylmorpholin-4-yl]-5H-pyrrolo[3,2-d]pyrimidin-6-amine] to `Cc1nc(N2C[C@@H](C)O[C@@H](C)C2)c2[nH]c(N)c(S(=O)(=O)c3ccccc3F)c2n1` [Example 187, 4-[(2R,6S)-2,6-dimethylmorpholin-4-yl]-7-(2-fluorobenzenesulfonyl)-2-methyl-5H-pyrrolo[3,2-d]pyrimidin-6-amine], the EC50 falls from 125 nM to 5 nM (25-fold). The second is the more potent here.

Going from `Nc1[nH]c2c(OCC3CCOCC3)ncnc2c1S(=O)(=O)c1ccccc1` [Example 169, 7-(benzenesulfonyl)-4-(oxan-4-ylmethoxy)-5H-pyrrolo[3,2-d]pyrimidin-6-amine] to `Nc1[nH]c2c(OC3CCCC3)ncnc2c1S(=O)(=O)c1ccccc1` [Example 202, 7-(benzenesulfonyl)-4-(cyclopentyloxy)-5H-pyrrolo[3,2-d]pyrimidin-6-amine], the EC50 falls from 1890 nM to 50 nM (38-fold).

First: COC[C@H]1CCCN1c1ncnc2c(S(=O)(=O)c3ccccc3)c(N)[nH]c12 [Example 118, 7-(benzenesulfonyl)-4-[(2R)-2-(methoxymethyl)pyrrolidin-1-yl]-5H-pyrrolo[3,2-d]pyrimidin-6-amine]
Second: COCC1CCN(c2ncnc3c(S(=O)(=O)c4ccccc4)c(N)[nH]c23)CC1 [Example 112, 7-(benzenesulfonyl)-4-[4-(methoxymethyl)piperidin-1-yl]-5H-pyrrolo[3,2-d]pyrimidin-6-amine]
The EC50 of the first is 6.3-fold higher: 5180 nM for the first, 818 nM for the second.

First: Nc1[nH]c2c(C3=CCCCC3)ncnc2c1S(=O)(=O)CC1CCOCC1 [Example 109, 4-(cyclohex-1-en-1-yl)-7-(oxan-4-ylmethanesulfonyl)-5H-pyrrolo[3,2-d]pyrimidin-6-amine]
Second: Nc1[nH]c2c(N3CCOCC3)ncnc2c1S(=O)(=O)c1ccccc1 [Example 6, 7-(benzenesulfonyl)-4-(morpholin-4-yl)-5H-pyrrolo[3,2-d]pyrimidin-6-amine]
The EC50 of the first is 18-fold higher: 5020 nM for the first, 273 nM for the second. The second is the more potent here.

Compared with `Cc1cccc(S(=O)(=O)c2c(N)[nH]c3c(N4CCOC(C)C4)ncnc23)c1` (stereo not shown) [Example 121, 7-(3-methylbenzenesulfonyl)-4-(2-methylmorpholin-4-yl)-5H-pyrrolo[3,2-d]pyrimidin-6-amine], `CC1CN(c2ncnc3c(S(=O)(=O)c4cccnc4)c(N)[nH]c23)CCO1` (stereo not shown) [Example 122, 4-(2-methylmorpholin-4-yl)-7-(pyridine-3-sulfonyl)-5H-pyrrolo[3,2-d]pyrimidin-6-amine] is 9.3-fold higher in EC50: 67 nM for the first, 625 nM for the second.

First: Cc1nc(N2CCOC(C)(C)C2)c2[nH]c(N)c(S(=O)(=O)c3ccc(Cl)cc3F)c2n1 [Example 279, 7-(4-chloro-2-fluorobenzenesulfonyl)-4-(2,2-dimethylmorpholin-4-yl)-2-methyl-5H-pyrrolo[3,2-d]pyrimidin-6-amine]
Second: COc1ccc(S(=O)(=O)c2c(N)[nH]c3c(N4CCOC(C)(C)C4)nc(C)nc23)c(F)c1 [Example 241, 4-(2,2-dimethylmorpholin-4-yl)-7-(2-fluoro-4-methoxybenzenesulfonyl)-2-methyl-5H-pyrrolo[3,2-d]pyrimidin-6-amine]
The EC50 of the first is 2-fold higher: 4 nM for the first, 2 nM for the second. The second is the more potent here.

First: Nc1[nH]c2c(C3CCCC3)ncnc2c1S(=O)(=O)c1ccccc1F [Example 88, 4-cyclopentyl-7-(2-fluorobenzenesulfonyl)-5H-pyrrolo[3,2-d]pyrimidin-6-amine]
Second: Nc1[nH]c2c(C3CCCC3)ncnc2c1S(=O)(=O)c1ccccc1 [Example 23, 7-(benzenesulfonyl)-4-cyclopentyl-5H-pyrrolo[3,2-d]pyrimidin-6-amine]
The EC50 of the first is 4.6-fold lower: 21 nM for the first, 97 nM for the second. The first is the more potent here.

`Nc1[nH]c2c(C3CCCCC3)nc(C3CC3)nc2c1S(=O)(=O)c1ccccc1` [Example 131, 7-(benzenesulfonyl)-4-cyclohexyl-2-cyclopropyl-5H-pyrrolo[3,2-d]pyrimidin-6-amine] and `Nc1[nH]c2c(/C=C/C3CC3)ncnc2c1S(=O)(=O)c1ccccc1` [Example 11, 7-(benzenesulfonyl)-4-[(E)-2-cyclopropylethenyl]-5H-pyrrolo[3,2-d]pyrimidin-6-amine] are within 1.5-fold of each other in EC50: 166 nM for the first, 112 nM for the second.

First: Cc1cccc(-c2nc(C)nc3c(S(=O)(=O)c4ccccc4)c(N)[nH]c23)c1 [Example 148, 7-(benzenesulfonyl)-2-methyl-4-(3-methylphenyl)-5H-pyrrolo[3,2-d]pyrimidin-6-amine]
Second: CC[C@H](C)Oc1nc(C)nc2c(S(=O)(=O)c3ccccc3)c(N)[nH]c12 [Example 246, 7-(benzenesulfonyl)-4-[(2S)-butan-2-yloxy]-2-methyl-5H-pyrrolo[3,2-d]pyrimidin-6-amine]
The EC50 of the first is 4.6-fold lower: 14 nM for the first, 64 nM for the second.

`Cc1nc(N2CCOC(C(F)(F)F)C2)c2[nH]c(N)c(S(=O)(=O)c3ccccc3F)c2n1` (stereo not shown) [Example 231, 7-(2-fluorobenzenesulfonyl)-2-methyl-4-[2-(trifluoromethyl)morpholin-4-yl]-5H-pyrrolo[3,2-d]pyrimidin-6-amine] and `Cc1nc(N2CCO[C@@H](C(F)(F)F)C2)c2[nH]c(N)c(S(=O)(=O)c3ccc(Cl)cc3F)c2n1` [Example 297, 7-(4-chloro-2-fluorobenzenesulfonyl)-2-methyl-4-[(2R)-2-(trifluoromethyl)morpholin-4-yl]-5H-pyrrolo[3,2-d]pyrimidin-6-amine] are the same in EC50: 2 nM for the first, 2 nM for the second.

`CSc1nc(N2CCOC(C)C2)c2[nH]c(N)c(S(=O)(=O)c3ccccc3F)c2n1` (stereo not shown) [Example 269, 7-(2-fluorobenzenesulfonyl)-4-(2-methylmorpholin-4-yl)-2-(methylsulfanyl)-5H-pyrrolo[3,2-d]pyrimidin-6-amine] and `COc1nc(N2CCOC(C)C2)c2[nH]c(N)c(S(=O)(=O)c3ccccc3F)c2n1` (stereo not shown) [Example 271, 7-(2-fluorobenzenesulfonyl)-2-methoxy-4-(2-methylmorpholin-4-yl)-5H-pyrrolo[3,2-d]pyrimidin-6-amine] are within 1.5-fold of each other in EC50: 9 nM for the first, 8 nM for the second.

Compared with `Cc1nc(N2C[C@@H](C)O[C@H](C)C2)c2[nH]c(N)c(S(=O)(=O)c3cccc(F)c3)c2n1` [Example 200, 4-[(2R,6R)-2,6-dimethylmorpholin-4-yl]-7-(3-fluorobenzenesulfonyl)-2-methyl-5H-pyrrolo[3,2-d]pyrimidin-6-amine], `Cc1cc(F)ccc1S(=O)(=O)c1c(N)[nH]c2c(N3CCOC(C)C3)ncnc12` (stereo not shown) [Example 178, 7-(4-fluoro-2-methylbenzenesulfonyl)-4-(2-methylmorpholin-4-yl)-5H-pyrrolo[3,2-d]pyrimidin-6-amine] is 27-fold higher in EC50: 25 nM for the first, 676 nM for the second. The first is the more potent here.

Going from `CCC1(C)CN(c2ncnc3c(S(=O)(=O)c4ccccc4)c(N)[nH]c23)CCO1` (stereo not shown) [Example 221, 7-(benzenesulfonyl)-4-(2-ethyl-2-methylmorpholin-4-yl)-5H-pyrrolo[3,2-d]pyrimidin-6-amine] to `CCOC1CCCN(c2ncnc3c(S(=O)(=O)c4ccccc4)c(N)[nH]c23)C1` (stereo not shown) [Example 113, 7-(benzenesulfonyl)-4-(3-ethoxypiperidin-1-yl)-5H-pyrrolo[3,2-d]pyrimidin-6-amine], the EC50 rises from 104 nM to 858 nM (8.2-fold).

Compared with `CN(CC(F)F)c1ncnc2c(S(=O)(=O)c3ccccc3)c(N)[nH]c12` [Example 96, 7-(benzenesulfonyl)-4-N-(2,2-difluoroethyl)-4 N-methyl-5H-pyrrolo[3,2-d]pyrimidine-4,6-diamine], `CC(Oc1ncnc2c(S(=O)(=O)c3ccccc3)c(N)[nH]c12)C1CC1` (stereo not shown) [Example 170, 7-(benzenesulfonyl)-4-(1-cyclopropylethoxy)-5H-pyrrolo[3,2-d]pyrimidin-6-amine] is 4-fold lower in EC50: 162 nM for the first, 40 nM for the second.

Compared with `Nc1[nH]c2c(OC3CCC(F)(F)CC3)ncnc2c1S(=O)(=O)c1ccccc1` [Example 211, 7-(benzenesulfonyl)-4-[(4,4-difluorocyclohexyl)oxy]-5H-pyrrolo[3,2-d]pyrimidin-6-amine], `Cc1nc(OC(C)C)c2[nH]c(N)c(S(=O)(=O)c3ccccc3)c2n1` [Example 242, 7-(benzenesulfonyl)-2-methyl-4-(propan-2-yloxy)-5H-pyrrolo[3,2-d]pyrimidin-6-amine] is 1.5-fold higher in EC50: 34 nM for the first, 51 nM for the second. The first is the more potent here.

`COc1cc(F)ccc1S(=O)(=O)c1c(N)[nH]c2c(N3CCOC(C)C3)ncnc12` (stereo not shown) [Example 222, 7-(4-fluoro-2-methoxybenzenesulfonyl)-4-(2-methylmorpholin-4-yl)-5H-pyrrolo[3,2-d]pyrimidin-6-amine] was tested, and the EC50 was 4040 nM.
